The values below are quoted from earlier work in US12233088B2 (Alexion Pharmaceuticals, Inc., priority 2017, dated 2025).

The structures appear in SMILES notation.

In this data set the test system is patients with Wilson's disease. The settings on record: cited from earlier work; for patients with worsening of neurological symptoms on initiation of treatment: reported.

`CC(C)(S)[C@@H](N)C(=O)O` [penicillamine, D-penicillamine]: the “patients with worsening of neurological symptoms on initiation of treatment” value is listed as “approximately 25%”. Besides, the “mean time to neurological worsening from initiation” value (Litwin et al.) is listed as 2.3 months. In addition, the “patients with early neurological worsening, n (%)” value (of 42 patients with neurological Wilson's disease, Litwin et al.) is 12 (29%).
As for `NCCNCCNCCN` [trientine], the “patients with worsening of neurological symptoms on initiation of treatment” value is recorded as “approximately 25%”.
As for `[Zn]` [zinc], the “children with gastrointestinal adverse events” value (Polish cohort, Wiernicka et al.) was 40%. For the same molecule, the “patients who discontinued treatment because of adverse events” value (retrospective study) is 11%.
